# Measured values published in article PMC10938783, “A novel pan-PI3K inhibitor KTC1101 synergizes with anti-PD-1 therapy by targeting tumor suppression and immune activation” (Molecular Cancer, 2024).
# Tested on: B16 cells gene expression
# Experiment: RNA-Seq (DEGs, GSEA, heatmaps) of B16 cells
# Details: B16 cells, KTC 0.2μM
compound,measurement,setting,value
"COc1cc(N)cc2c1nc(C(F)F)n2-c1nc(N2CCCOCC2)nc(N2CCOCC2)n1 [KTC1101, 2-(difluoromethyl)-4-methoxy-1-(4-morpholino-6-(1,4-oxazepan-4-yl)-1,3,5-triazin-2-yl)-1H-benzo[d]imidazol-6-amine]",NES: Platinum drug resistance,GSEA KEGG mmu01524,-1.706
same,enrichmentScore: Platinum drug resistance,GSEA KEGG mmu01524,-0.4321
same,NES: Ribosome,GSEA KEGG mmu03010,2.0791
same,enrichmentScore: Ribosome,GSEA KEGG mmu03010,0.5599
same,NES: Nucleocytoplasmic transport,GSEA KEGG mmu03013,-1.168
same,enrichmentScore: Nucleocytoplasmic transport,GSEA KEGG mmu03013,-0.2706
same,NES: DNA replication,GSEA KEGG mmu03030,-1.22
same,enrichmentScore: DNA replication,GSEA KEGG mmu03030,-0.374
same,NES: Proteasome,GSEA KEGG mmu03050,-1.869
same,enrichmentScore: Proteasome,GSEA KEGG mmu03050,-0.5072
same,NES: PPAR signaling pathway,GSEA KEGG mmu03320,-1.414
same,enrichmentScore: PPAR signaling pathway,GSEA KEGG mmu03320,-0.3831
same,NES: Homologous recombination,GSEA KEGG mmu03440,-1.259
same,enrichmentScore: Homologous recombination,GSEA KEGG mmu03440,-0.3597
same,NES: MAPK signaling pathway,GSEA KEGG mmu04010,1.18
same,enrichmentScore: MAPK signaling pathway,GSEA KEGG mmu04010,0.3038
same,NES: ErbB signaling pathway,GSEA KEGG mmu04012,1.235
same,enrichmentScore: ErbB signaling pathway,GSEA KEGG mmu04012,0.3633
same,NES: Rap1 signaling pathway,GSEA KEGG mmu04015,1.294
same,enrichmentScore: Rap1 signaling pathway,GSEA KEGG mmu04015,0.3507
same,NES: Calcium signaling pathway,GSEA KEGG mmu04020,1.795
same,enrichmentScore: Calcium signaling pathway,GSEA KEGG mmu04020,0.4973
same,NES: cGMP-PKG signaling pathway,GSEA KEGG mmu04022,1.703
same,enrichmentScore: cGMP-PKG signaling pathway,GSEA KEGG mmu04022,0.4759
same,NES: cAMP signaling pathway,GSEA KEGG mmu04024,1.563
same,enrichmentScore: cAMP signaling pathway,GSEA KEGG mmu04024,0.4327
same,NES: Cytokine-cytokine receptor interaction,GSEA KEGG mmu04060,1.941
same,enrichmentScore: Cytokine-cytokine receptor interaction,GSEA KEGG mmu04060,0.59
same,NES: Viral protein interaction with cytokine and cytokine receptor,GSEA KEGG mmu04061,2.1
same,enrichmentScore: Viral protein interaction with cytokine and cytokine receptor,GSEA KEGG mmu04061,0.7876
same,NES: Chemokine signaling pathway,GSEA KEGG mmu04062,1.837
same,enrichmentScore: Chemokine signaling pathway,GSEA KEGG mmu04062,0.514
same,NES: NF-kappa B signaling pathway,GSEA KEGG mmu04064,1.257
same,enrichmentScore: NF-kappa B signaling pathway,GSEA KEGG mmu04064,0.3844
same,NES: HIF-1 signaling pathway,GSEA KEGG mmu04066,-1.602
same,enrichmentScore: HIF-1 signaling pathway,GSEA KEGG mmu04066,-0.3782
same,NES: Phospholipase D signaling pathway,GSEA KEGG mmu04072,1.435
same,enrichmentScore: Phospholipase D signaling pathway,GSEA KEGG mmu04072,0.4011
same,NES: Neuroactive ligand-receptor interaction,GSEA KEGG mmu04080,1.734
same,enrichmentScore: Neuroactive ligand-receptor interaction,GSEA KEGG mmu04080,0.5578
same,NES: Cell cycle,GSEA KEGG mmu04110,-1.229
same,enrichmentScore: Cell cycle,GSEA KEGG mmu04110,-0.265
same,NES: Oocyte meiosis,GSEA KEGG mmu04114,-1.291
same,enrichmentScore: Oocyte meiosis,GSEA KEGG mmu04114,-0.2991
same,NES: Protein processing in endoplasmic reticulum,GSEA KEGG mmu04141,-1.222
same,enrichmentScore: Protein processing in endoplasmic reticulum,GSEA KEGG mmu04141,-0.2637
same,NES: Lysosome,GSEA KEGG mmu04142,-1.281
same,enrichmentScore: Lysosome,GSEA KEGG mmu04142,-0.2917
same,NES: Phagosome,GSEA KEGG mmu04145,-1.483
same,enrichmentScore: Phagosome,GSEA KEGG mmu04145,-0.3503
same,NES: PI3K-Akt signaling pathway,GSEA KEGG mmu04151,1.456
same,enrichmentScore: PI3K-Akt signaling pathway,GSEA KEGG mmu04151,0.3693
same,NES: Cellular senescence,GSEA KEGG mmu04218,1.209
same,enrichmentScore: Cellular senescence,GSEA KEGG mmu04218,0.3231
same,NES: Cardiac muscle contraction,GSEA KEGG mmu04260,1.313
same,enrichmentScore: Cardiac muscle contraction,GSEA KEGG mmu04260,0.4187
same,NES: Adrenergic signaling in cardiomyocytes,GSEA KEGG mmu04261,1.264
same,enrichmentScore: Adrenergic signaling in cardiomyocytes,GSEA KEGG mmu04261,0.3566
same,NES: Wnt signaling pathway,GSEA KEGG mmu04310,1.195
same,enrichmentScore: Wnt signaling pathway,GSEA KEGG mmu04310,0.334
same,NES: Notch signaling pathway,GSEA KEGG mmu04330,1.378
same,enrichmentScore: Notch signaling pathway,GSEA KEGG mmu04330,0.4468
same,NES: Hedgehog signaling pathway,GSEA KEGG mmu04340,-1.456
same,enrichmentScore: Hedgehog signaling pathway,GSEA KEGG mmu04340,-0.4001
same,NES: TGF-beta signaling pathway,GSEA KEGG mmu04350,1.497
same,enrichmentScore: TGF-beta signaling pathway,GSEA KEGG mmu04350,0.4579
same,NES: VEGF signaling pathway,GSEA KEGG mmu04370,-1.413
same,enrichmentScore: VEGF signaling pathway,GSEA KEGG mmu04370,-0.3829
same,NES: Apelin signaling pathway,GSEA KEGG mmu04371,1.504
same,enrichmentScore: Apelin signaling pathway,GSEA KEGG mmu04371,0.4209
same,NES: Osteoclast differentiation,GSEA KEGG mmu04380,1.356
same,enrichmentScore: Osteoclast differentiation,GSEA KEGG mmu04380,0.3943
same,NES: Hippo signaling pathway,GSEA KEGG mmu04390,1.527
same,enrichmentScore: Hippo signaling pathway,GSEA KEGG mmu04390,0.4244
same,NES: Focal adhesion,GSEA KEGG mmu04510,1.45
same,enrichmentScore: Focal adhesion,GSEA KEGG mmu04510,0.3877
same,NES: ECM-receptor interaction,GSEA KEGG mmu04512,1.51
same,enrichmentScore: ECM-receptor interaction,GSEA KEGG mmu04512,0.4857
same,NES: Gap junction,GSEA KEGG mmu04540,1.307
same,enrichmentScore: Gap junction,GSEA KEGG mmu04540,0.3903
same,NES: Complement and coagulation cascades,GSEA KEGG mmu04610,1.788
same,enrichmentScore: Complement and coagulation cascades,GSEA KEGG mmu04610,0.6389
same,NES: Neutrophil extracellular trap formation,GSEA KEGG mmu04613,1.259
same,enrichmentScore: Neutrophil extracellular trap formation,GSEA KEGG mmu04613,0.3655
same,NES: Toll-like receptor signaling pathway,GSEA KEGG mmu04620,1.2254
same,enrichmentScore: Toll-like receptor signaling pathway,GSEA KEGG mmu04620,0.3682
same,NES: NOD-like receptor signaling pathway,GSEA KEGG mmu04621,1.434
same,enrichmentScore: NOD-like receptor signaling pathway,GSEA KEGG mmu04621,0.4008
same,NES: C-type lectin receptor signaling pathway,GSEA KEGG mmu04625,1.433
same,enrichmentScore: C-type lectin receptor signaling pathway,GSEA KEGG mmu04625,0.4281
same,NES: JAK-STAT signaling pathway,GSEA KEGG mmu04630,1.466
same,enrichmentScore: JAK-STAT signaling pathway,GSEA KEGG mmu04630,0.4286
same,NES: Hematopoietic cell lineage,GSEA KEGG mmu04640,1.336
same,enrichmentScore: Hematopoietic cell lineage,GSEA KEGG mmu04640,0.501
same,NES: IL-17 signaling pathway,GSEA KEGG mmu04657,1.494
same,enrichmentScore: IL-17 signaling pathway,GSEA KEGG mmu04657,0.4654
same,NES: Th17 cell differentiation,GSEA KEGG mmu04659,1.198
same,enrichmentScore: Th17 cell differentiation,GSEA KEGG mmu04659,0.3665
same,NES: Fc epsilon RI signaling pathway,GSEA KEGG mmu04664,-1.329
same,enrichmentScore: Fc epsilon RI signaling pathway,GSEA KEGG mmu04664,-0.3636
same,NES: TNF signaling pathway,GSEA KEGG mmu04668,1.66
same,enrichmentScore: TNF signaling pathway,GSEA KEGG mmu04668,0.4756
same,NES: Circadian rhythm,GSEA KEGG mmu04710,-1.714
same,enrichmentScore: Circadian rhythm,GSEA KEGG mmu04710,-0.5347
same,NES: Circadian entrainment,GSEA KEGG mmu04713,1.598
same,enrichmentScore: Circadian entrainment,GSEA KEGG mmu04713,0.4957
same,NES: Synaptic vesicle cycle,GSEA KEGG mmu04721,-1.378
same,enrichmentScore: Synaptic vesicle cycle,GSEA KEGG mmu04721,-0.3771
same,NES: Neurotrophin signaling pathway,GSEA KEGG mmu04722,1.347
same,enrichmentScore: Neurotrophin signaling pathway,GSEA KEGG mmu04722,0.3745
same,NES: Glutamatergic synapse,GSEA KEGG mmu04724,1.249
same,enrichmentScore: Glutamatergic synapse,GSEA KEGG mmu04724,0.3819
same,NES: Cholinergic synapse,GSEA KEGG mmu04725,1.403
same,enrichmentScore: Cholinergic synapse,GSEA KEGG mmu04725,0.4174
same,NES: Olfactory transduction,GSEA KEGG mmu04740,1.83
same,enrichmentScore: Olfactory transduction,GSEA KEGG mmu04740,0.66
same,NES: Taste transduction,GSEA KEGG mmu04742,1.885
same,enrichmentScore: Taste transduction,GSEA KEGG mmu04742,0.7021
same,NES: Regulation of actin cytoskeleton,GSEA KEGG mmu04810,1.182
same,enrichmentScore: Regulation of actin cytoskeleton,GSEA KEGG mmu04810,0.312
same,NES: Motor proteins,GSEA KEGG mmu04814,-1.623
same,enrichmentScore: Motor proteins,GSEA KEGG mmu04814,-0.3694
same,NES: Insulin secretion,GSEA KEGG mmu04911,1.364
same,enrichmentScore: Insulin secretion,GSEA KEGG mmu04911,0.4349
same,NES: Ovarian steroidogenesis,GSEA KEGG mmu04913,1.397
same,enrichmentScore: Ovarian steroidogenesis,GSEA KEGG mmu04913,0.499
same,NES: Progesterone-mediated oocyte maturation,GSEA KEGG mmu04914,-1.352
same,enrichmentScore: Progesterone-mediated oocyte maturation,GSEA KEGG mmu04914,-0.3392
same,NES: Thyroid hormone synthesis,GSEA KEGG mmu04918,1.21
same,enrichmentScore: Thyroid hormone synthesis,GSEA KEGG mmu04918,0.3822
same,NES: Thyroid hormone signaling pathway,GSEA KEGG mmu04919,-1.193
same,enrichmentScore: Thyroid hormone signaling pathway,GSEA KEGG mmu04919,-0.278
same,NES: Oxytocin signaling pathway,GSEA KEGG mmu04921,1.2549
same,enrichmentScore: Oxytocin signaling pathway,GSEA KEGG mmu04921,0.3525
same,NES: Glucagon signaling pathway,GSEA KEGG mmu04922,-1.435
same,enrichmentScore: Glucagon signaling pathway,GSEA KEGG mmu04922,-0.3522
same,NES: Regulation of lipolysis in adipocytes,GSEA KEGG mmu04923,1.37
same,enrichmentScore: Regulation of lipolysis in adipocytes,GSEA KEGG mmu04923,0.4649
same,NES: Renin secretion,GSEA KEGG mmu04924,1.644
same,enrichmentScore: Renin secretion,GSEA KEGG mmu04924,0.5567
same,NES: Aldosterone synthesis and secretion,GSEA KEGG mmu04925,1.273
same,enrichmentScore: Aldosterone synthesis and secretion,GSEA KEGG mmu04925,0.3803
same,NES: Relaxin signaling pathway,GSEA KEGG mmu04926,1.257
same,enrichmentScore: Relaxin signaling pathway,GSEA KEGG mmu04926,0.3545
same,NES: Cortisol synthesis and secretion,GSEA KEGG mmu04927,1.396
same,enrichmentScore: Cortisol synthesis and secretion,GSEA KEGG mmu04927,0.4573
same,"NES: Parathyroid hormone synthesis, secretion and action",GSEA KEGG mmu04928,1.74
same,"enrichmentScore: Parathyroid hormone synthesis, secretion and action",GSEA KEGG mmu04928,0.5119
same,NES: Insulin resistance,GSEA KEGG mmu04931,-1.682
same,enrichmentScore: Insulin resistance,GSEA KEGG mmu04931,-0.394
same,NES: AGE-RAGE signaling pathway in diabetic complications,GSEA KEGG mmu04933,1.385
same,enrichmentScore: AGE-RAGE signaling pathway in diabetic complications,GSEA KEGG mmu04933,0.4005
same,"NES: Growth hormone synthesis, secretion and action",GSEA KEGG mmu04935,1.209
same,"enrichmentScore: Growth hormone synthesis, secretion and action",GSEA KEGG mmu04935,0.3459
same,NES: Collecting duct acid secretion,GSEA KEGG mmu04966,-1.6527
same,enrichmentScore: Collecting duct acid secretion,GSEA KEGG mmu04966,-0.5648
same,NES: Gastric acid secretion,GSEA KEGG mmu04971,1.497
same,enrichmentScore: Gastric acid secretion,GSEA KEGG mmu04971,0.4728
same,NES: Carbohydrate digestion and absorption,GSEA KEGG mmu04973,1.258
same,enrichmentScore: Carbohydrate digestion and absorption,GSEA KEGG mmu04973,0.4436
same,NES: Protein digestion and absorption,GSEA KEGG mmu04974,1.8879
same,enrichmentScore: Protein digestion and absorption,GSEA KEGG mmu04974,0.6074
